Data as given in patent US20230248834A1, “DEGRADATION OF (EGFR) BY CONJUGATION OF EGFR INHIBITORS WITH E3 LIGASE LIGAND AND METHODS OF USE” (BEIGENE, LTD., priority 2020, published 2023).

Columns and labels:
EGFR L858R/T790M/C797S = target: T1, EGFR L858R/T790M/C797S (Homo sapiens, UniProt P00533, C797S/L858R/T790M); experiment: EGFR degradation HTRF assay in BaF3-LTC cells; assay type: cell-based; settings: BaF3-LTC (L858R/T790M/C797S), maximum percentage of inhibition (degradation); read-out: BaF3-LTC Dmax (%)
T1 construct: expressed in transfected cells; host or cells: BaF3-LTC
Procedure: (§1) BaF3-LTC(L858R/T790M/C797S) cells and BaF3 LC(L858R/C797S) cells are treated with compounds diluted in 0.2% DMSO cell culture medium and incubate for 16 h, 37° C., 5% CO2. the final concentration of compounds in all assay is start with 10 uM, 5-fold dilution, total 8 doses were included.
(§2) After 16 h treatment, add HTRF lysis buffer to each well; seal the plate and incubate 1 hour at room temperature on a plate shaker; Once the cells are lysed, 16 μL of cell lysate are transferred to a PE 384-well HTRF detection plate; 4 μL of pre-mixed HTRF antibodies are added to each well; Cover the plate with a plate sealer, spin 1000 rpm for 1 min, Incubate overnight at room temperature; Read on BMG PheraStar with HTRF protocol (337 nm-665 nm-620 nm).
(§3) The inhibition (degradation) percentage of the compound was calculated by the following equation: Inhibition percentage of Compound=100−100×(Signal−low control)/(High control−low control), wherein signal=each test compound group
(§4) High control=Cell group with added DMSO and without compound, indicating microplate readings without EGFR degradation;
(§5) Dmax is the maximum percentage of inhibition (degradation).
(§6) The IC50 (DC50) value of a compound can be obtained by fitting the following equation
(§7) Y=Bottom+(TOP−Bottom)/(1+((IC50/X)^hillslope))
(§8) Wherein, X and Y are known values, and IC50, Hillslope, Top and Bottom are the parameters obtained by fitting with software. Y is the inhibition percentage (calculated from the equation), X is the concentration of the compound; IC50 is the concentration of the compound when the 50% inhibition is reached. The smaller the IC50 value is, the stronger the inhibitory ability of the compound is. Vice versa, the higher the IC50 value is, the weaker the inhibitory ability of the compound is; Hillslope represents the slope of the fitted curve, generally around 1*; Bottom represents the minimum value of the curve obtained by data fitting, which is generally 0%±20%; Top represents the maximum value of the curve obtained by data fitting, which is generally 100%±20%. The experimental data were fitted by calculating and analyzing with Dotmatics data analysis software.

EGFR L858R/C797S = target: T2, EGFR L858R/C797S (Homo sapiens, UniProt P00533, C797S/L858R); experiment: EGFR degradation HTRF assay in BaF3 LC cells; assay type: cell-based; settings: BaF3 LC (L858R/C797S), maximum percentage of inhibition (degradation); read-out: BaF3 LC Dmax (%)
T2 construct: expressed in transfected cells; host or cells: BaF3 LC
Procedure: as §1, §2, §3, §4, §5, §6, §7, §8

T1 sequence (P00533 25-1210 T790M/C797S/L858R): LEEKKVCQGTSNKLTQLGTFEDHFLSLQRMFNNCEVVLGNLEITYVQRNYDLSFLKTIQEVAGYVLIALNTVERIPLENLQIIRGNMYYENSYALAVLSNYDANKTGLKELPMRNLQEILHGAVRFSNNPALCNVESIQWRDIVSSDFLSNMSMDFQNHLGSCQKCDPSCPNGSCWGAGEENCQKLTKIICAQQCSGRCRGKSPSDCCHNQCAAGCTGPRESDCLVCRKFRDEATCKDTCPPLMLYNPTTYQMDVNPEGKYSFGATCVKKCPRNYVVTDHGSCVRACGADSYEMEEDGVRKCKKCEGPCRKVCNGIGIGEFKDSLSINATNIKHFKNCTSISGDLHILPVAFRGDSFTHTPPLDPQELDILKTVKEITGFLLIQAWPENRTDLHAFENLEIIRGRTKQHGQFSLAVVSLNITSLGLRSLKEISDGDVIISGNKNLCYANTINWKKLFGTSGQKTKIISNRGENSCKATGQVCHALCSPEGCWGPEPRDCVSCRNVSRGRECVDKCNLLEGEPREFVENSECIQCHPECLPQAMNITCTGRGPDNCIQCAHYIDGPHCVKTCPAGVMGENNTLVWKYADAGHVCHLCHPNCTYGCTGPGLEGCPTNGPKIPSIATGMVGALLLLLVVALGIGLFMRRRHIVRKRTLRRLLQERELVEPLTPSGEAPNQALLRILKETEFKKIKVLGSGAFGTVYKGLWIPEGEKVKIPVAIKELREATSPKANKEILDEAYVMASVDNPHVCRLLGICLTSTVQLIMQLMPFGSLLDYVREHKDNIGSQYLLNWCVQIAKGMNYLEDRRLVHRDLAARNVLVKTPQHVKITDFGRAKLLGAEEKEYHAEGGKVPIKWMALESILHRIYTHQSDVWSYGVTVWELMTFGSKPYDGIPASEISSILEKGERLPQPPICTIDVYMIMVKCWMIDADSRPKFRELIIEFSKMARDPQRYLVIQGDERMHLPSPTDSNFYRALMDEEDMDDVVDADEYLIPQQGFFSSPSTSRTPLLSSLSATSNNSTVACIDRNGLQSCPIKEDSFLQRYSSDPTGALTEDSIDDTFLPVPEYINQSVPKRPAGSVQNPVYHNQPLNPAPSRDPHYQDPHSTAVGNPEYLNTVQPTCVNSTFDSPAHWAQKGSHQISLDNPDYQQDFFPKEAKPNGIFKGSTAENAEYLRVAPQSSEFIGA
T2 sequence (P00533 25-1210 C797S/L858R): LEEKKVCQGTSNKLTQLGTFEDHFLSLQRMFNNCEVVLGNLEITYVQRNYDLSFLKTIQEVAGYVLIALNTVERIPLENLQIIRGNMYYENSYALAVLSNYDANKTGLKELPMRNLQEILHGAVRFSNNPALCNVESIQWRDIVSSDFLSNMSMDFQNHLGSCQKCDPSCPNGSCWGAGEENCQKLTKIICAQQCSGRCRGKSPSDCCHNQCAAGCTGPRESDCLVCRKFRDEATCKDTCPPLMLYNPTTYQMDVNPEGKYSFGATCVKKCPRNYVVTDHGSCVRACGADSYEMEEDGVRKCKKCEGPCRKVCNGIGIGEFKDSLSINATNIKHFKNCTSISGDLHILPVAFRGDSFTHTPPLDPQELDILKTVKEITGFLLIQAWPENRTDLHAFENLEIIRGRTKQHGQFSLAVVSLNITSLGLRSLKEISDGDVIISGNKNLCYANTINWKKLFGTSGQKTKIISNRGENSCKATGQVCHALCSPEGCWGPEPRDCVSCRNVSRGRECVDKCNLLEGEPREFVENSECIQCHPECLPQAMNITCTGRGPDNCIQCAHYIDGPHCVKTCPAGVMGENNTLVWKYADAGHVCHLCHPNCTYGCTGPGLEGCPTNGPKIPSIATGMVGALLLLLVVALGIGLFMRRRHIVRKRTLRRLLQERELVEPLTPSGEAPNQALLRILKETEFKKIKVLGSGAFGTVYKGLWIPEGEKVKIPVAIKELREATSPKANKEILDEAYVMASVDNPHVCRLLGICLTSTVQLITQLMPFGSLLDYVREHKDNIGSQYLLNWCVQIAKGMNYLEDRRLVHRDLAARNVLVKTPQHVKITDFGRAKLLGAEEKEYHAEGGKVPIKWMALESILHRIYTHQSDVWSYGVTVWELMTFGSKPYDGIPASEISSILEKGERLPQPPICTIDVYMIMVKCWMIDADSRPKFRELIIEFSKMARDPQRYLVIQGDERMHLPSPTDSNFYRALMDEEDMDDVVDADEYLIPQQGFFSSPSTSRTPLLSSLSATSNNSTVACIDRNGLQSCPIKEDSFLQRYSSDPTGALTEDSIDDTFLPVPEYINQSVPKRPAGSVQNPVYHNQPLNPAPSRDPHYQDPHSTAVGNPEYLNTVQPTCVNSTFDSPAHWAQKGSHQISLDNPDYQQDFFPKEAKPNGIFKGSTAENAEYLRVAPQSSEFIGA

Row | Structure (SMILES) | Dmax (EGFR L858R/T790M/C797S) | Dmax (EGFR L858R/C797S)
1 | CCOc1cc(N2CCC(N3CCN(CCc4cc(F)c([C@H]5CCC(=O)NC5=O)c(F)c4)CC3)CC2)c(CC)cc1Nc1ncc(Br)c(Nc2ccc3nc(CC)ccc3c2P(C)(C)=O)n1 [Example 483, (R)-3-(4-(2-(4-(1-(4-((5-bromo-4-((5-(dimethylphosphoryl)-2-ethylquinolin-6-yl)amino)pyrimidin-2-yl)amino)-5-ethoxy-2-ethylphenyl)piperidin-4-yl)piperazin-1-yl)ethyl)-2,6-difluorophenyl)piperidine-2,6-dione] | 86.9% | 83.2%
2 | CCc1ccc2c(P(C)(C)=O)c(Nc3nc(Nc4cc(CC)c(N5CCC(N6CCN(CCc7cc(F)c([C@H]8CCC(=O)NC8=O)c(F)c7)CC6)CC5)cc4OC)ncc3Br)ccc2n1 [Example 484, (R)-3-(4-(2-(4-(1-(4-((5-bromo-4-((5-(dimethylphosphoryl)-2-ethylquinolin-6-yl)amino)pyrimidin-2-yl)amino)-2-ethyl-5-methoxyphenyl)piperidin-4-yl)piperazin-1-yl)ethyl)-2,6-difluorophenyl)piperidine-2,6-dione] | 95.4% | 91.6%
3 | CCc1ccc2c(P(C)(C)=O)c(Nc3nc(Nc4cc(CC)c(N5CCC(N6CCN(CCc7cc(F)c(C8CCC(=O)NC8=O)c(F)c7)CC6)CC5)cc4OC)ncc3Br)ccc2n1 (stereo not drawn) [Example 485, 3-(4-(2-(4-(1-(4-((5-bromo-4-((5-(dimethylphosphoryl)-2-ethylquinolin-6-yl)amino)pyrimidin-2-yl)amino)-2-ethyl-5-methoxyphenyl)piperidin-4-yl)piperazin-1-yl)ethyl)-2,6-difluorophenyl)piperidine-2,6-dione] | 88.5% | 88.3%
4 | CCOc1cc(N2CCC(N3CCN(CCc4cc(F)c([C@H]5CCC(=O)NC5=O)c(F)c4)CC3)CC2)c(CC)cc1Nc1ncc(Br)c(Nc2cc(F)c3nc(CC)ccc3c2P(C)(C)=O)n1 [Example 486, (R)-3-(4-(2-(4-(1-(4-((5-bromo-4-((5-(dimethylphosphoryl)-2-ethyl-8-fluoroquinolin-6-yl)amino)pyrimidin-2-yl)amino)-5-ethoxy-2-ethylphenyl)piperidin-4-yl)piperazin-1-yl)ethyl)-2,6-difluorophenyl)piperidine-2,6-dione] | 87.8% | 87.8%
5 | CCc1cc(Nc2ncc(Br)c(Nc3ccc4nc(C)ccc4c3P(C)(C)=O)n2)c(OC)cc1N1CCC(N2CCN(C(=O)[C@H]3CN(c4cc(F)c([C@H]5CCC(=O)NC5=O)c(F)c4)CC3(C)C)CC2)CC1 [Example 487, (R)-3-(4-((R)-4-(4-(1-(4-((5-bromo-4-((5-(dimethylphosphoryl)-2-methylquinolin-6-yl)amino)pyrimidin-2-yl)amino)-2-ethyl-5-methoxyphenyl)piperidin-4-yl)piperazine-1-carbonyl)-3,3-dimethylpyrrolidin-1-yl)-2,6-difluorophenyl)piperidine-2,6-dione] | 98% | 95.6%
6 | CCc1cc(Nc2ncc(Br)c(Nc3ccc4nc(C)c(F)cc4c3P(C)(C)=O)n2)c(OC)cc1N1CCC(N2CCN(C(=O)[C@@H]3CCN(c4cc(F)c([C@H]5CCC(=O)NC5=O)c(F)c4)C3)CC2)CC1 [Example 488, (R)-3-(4-((R)-3-(4-(1-(4-((5-bromo-4-((5-(dimethylphosphoryl)-3-fluoro-2-methylquinolin-6-yl)amino)pyrimidin-2-yl)amino)-2-ethyl-5-methoxyphenyl)piperidin-4-yl)piperazine-1-carbonyl)pyrrolidin-1-yl)-2,6-difluorophenyl)piperidine-2,6-dione] | 96.6% | 92.8%
7 | CCc1ccc2c(P(C)(C)=O)c(Nc3nc(Nc4cc(CC)c(N5CCC(N6CCN(C(=O)[C@@H]7CCN(c8cc(F)c([C@H]9CCC(=O)NC9=O)c(F)c8)C7)CC6)CC5)cc4OC)ncc3Br)ccc2n1 [Example 489, (R)-3-(4-((R)-3-(4-(1-(4-((5-bromo-4-((5-(dimethylphosphoryl)-2-ethylquinolin-6-yl)amino)pyrimidin-2-yl)amino)-2-ethyl-5-methoxyphenyl)piperidin-4-yl)piperazine-1-carbonyl)pyrrolidin-1-yl)-2,6-difluorophenyl)piperidine-2,6-dione] | 98.6% | 86.6%
8 | CCc1ccc2c(P(C)(C)=O)c(Nc3nc(Nc4cc(CC)c(N5CCC(N6CCN(CCc7ccc8c(c7)oc(=O)n8C7CCC(=O)NC7=O)CC6)CC5)cc4OC)ncc3Br)ccc2n1 (stereo not drawn) [Example 491, 3-(6-(2-(4-(1-(4-((5-bromo-4-((5-(dimethylphosphoryl)-2-ethylquinolin-6-yl)amino)pyrimidin-2-yl)amino)-2-ethyl-5-methoxyphenyl)piperidin-4-yl)piperazin-1-yl)ethyl)-2-oxobenzo[d]oxazol-3(2H)-yl)piperidine-2,6-dione] | 92.7% | 94.7%
9 | CCOc1cc(N2CCC(N3CCN(CCc4cccc5c4oc(=O)n5C4CCC(=O)NC4=O)CC3)CC2)c(CC)cc1Nc1ncc(Br)c(Nc2cc(F)c3nc(CC)ccc3c2P(C)(C)=O)n1 (stereo not drawn) [Example 493, 3-(7-(2-(4-(1-(4-((5-bromo-4-((5-(dimethylphosphoryl)-2-ethyl-8-fluoroquinolin-6-yl)amino)pyrimidin-2-yl)amino)-5-ethoxy-2-ethylphenyl)piperidin-4-yl)piperazin-1-yl)ethyl)-2-oxobenzo[d]oxazol-3(2H)-yl)piperidine-2,6-dione] | 95.2% | 87.1%
10 | CCOc1cc(N2CCC(N3CCN(CCc4cccc5c4C(C)(C)C(=O)N5C4CCC(=O)NC4=O)CC3)CC2)c(CC)cc1Nc1ncc(Br)c(Nc2ccc3c(=O)n(CC)ncc3c2P(C)(C)=O)n1 (stereo not drawn) [Example 501, 3-(4-(2-(4-(1-(4-((5-bromo-4-((5-(dimethylphosphoryl)-2-ethyl-1-oxo-1,2-dihydrophthalazin-6-yl)amino)pyrimidin-2-yl)amino)-5-ethoxy-2-ethylphenyl)piperidin-4-yl)piperazin-1-yl)ethyl)-3,3-dimethyl-2-oxoindolin-1-yl)piperidine-2,6-dione] | 83.5% | 93.5%
11 | CCOc1cc(N2CCC(N3CCN(CCc4cc(F)c([C@H]5CCC(=O)NC5=O)c(F)c4)CC3)CC2)c(CC)cc1Nc1ncc(Br)c(Nc2ccc3c(=O)n(C)ncc3c2P(C)(C)=O)n1 [Example 502, (R)-3-(4-(2-(4-(1-(4-((5-bromo-4-((5-(dimethylphosphoryl)-2-methyl-1-oxo-1,2-dihydrophthalazin-6-yl)amino)pyrimidin-2-yl)amino)-5-ethoxy-2-ethylphenyl)piperidin-4-yl)piperazin-1-yl)ethyl)-2,6-difluorophenyl)piperidine-2,6-dione] | 96.7% | 87.6%
12 | CCOc1cc(N2CCC(N3CCN(CCc4c(F)ccc5c4n(C)c(=O)n5C4CCC(=O)NC4=O)CC3)CC2)c(CC)cc1Nc1ncc(Br)c(Nc2ccc3nc(CC)ccc3c2P(C)(C)=O)n1 (stereo not drawn) [Example 503, 3-(4-(2-(4-(1-(4-((5-bromo-4-((5-(dimethylphosphoryl)-2-ethylquinolin-6-yl)amino)pyrimidin-2-yl)amino)-5-ethoxy-2-ethylphenyl)piperidin-4-yl)piperazin-1-yl)ethyl)-5-fluoro-3-methyl-2-oxo-2,3-dihydro-1H-benzo[d]imidazol-1-yl)piperidine-2,6-dione] | 90.2% | 88.9%
